Measurements published in patent US20180028507A1, “3-CARBAMOYLPHENYL-4-CARBOXAMIDE AND ISOPHTALAMIDE DERIVATIVES AS INHIBITORS OF THE WNT SIGNALLING PATHWAY” (Bayer Pharma Aktiengesellschaft, priority 2015, published 2018).

Key:
[1] = test system: constitutive active colorectal cancer cell (CRC) Wnt pathway; assay: HCT116 TOPFlash cellular reporter assay (Super TopFlash vector, luciferase); type: cell-based; conditions: Homo sapiens, HCT-116; HCT116 Super TopFlash reporter cells, 36 hours incubation, dilution series 50 μM to 15 nM, luciferase expression
Procedure: In order to discover and characterize small molecules which inhibit the constitutive active colorectal cancer cell (CRC) Wnt pathway, a cellular reporter assay was employed. The corresponding assay cell was generated by transfection of the colorectal cancer cell line HCT116 (ATCC, #CCL-247) with the Super TopFlash vector (Morin, Science 275, 1997, 1787-1790; Molenaar et al., Cell 86 (3), 1996, 391-399). The HCT116 cell line is cultivated at 37° C. and 5% CO2 in DMEM/F-12 (Life Technologies, #11320-074), supplemented with 2 mM glutamine, 20 mM HEPES, 1.4 mM pyruvate, 0.15% Na-bicarbonate and 10% foetal bovine serum (GIBCO, #10270), this cancer cell line is pathophysiological relevant since it carries a deletion of position S45 in the β-catenin gene, leading to constitutive active Wnt signaling. Stable transfectants were generated by cotransfection with pcDNA3 and selection of stable transfected cells with 1 mg/ml G418.
(§1) In preparation of the assay, the two cell lines were plated 24 hours before at 10000 cells per well of a 384 micro titre plate (MTP) in 30 μL growth medium. Selective inhibitory activity for small molecules on the mutated Wnt pathway was determined after parallel incubation of both (TOP and FOP) HCT116 reporter cell lines with a compound dilution series from 50 μM to 15 nM in steps of 3.16-fold dilutions in CAFTY buffer (130 mM NaCl, 5 mM KCl, 20 mM HEPES, 1 mM MgCl2, 5 mM NaHCO3, pH 7.4) containing 2 mM Ca^2+ and 0.01% BSA. The compounds were thereby serially prediluted in 100% DMSO and thereafter in addition 50 fold into the CAFTY compound dilution buffer (described above). From this dilution 10 μL were added to the cells in 30 μL growth medium and incubated for 36 hours at 37° C. and 5% CO2.

[2] = test system: HCT116 cells cotransfected with the FOP control vector (non-functional TCF elements); assay: HCT116 FOPFlash control reporter assay (FOP control vector, luciferase); type: cell-based; conditions: Homo sapiens, HCT-116, 36 hours incubation, dilution series 50 μM to 15 nM, luciferase expression
Procedure: In a parallel approach, HCT116 cells were cotransfected with the FOP control vector and pcDNA3. The FOP vector is identical to the TOP construct, but it contains instead of functional TCF elements a randomized, non-functional sequence. For this transfection a stable transfected cell line was generated as well.
as §1

Row | IC50 [1] [µM] | IC50 [2] [µM] | Structure (SMILES)
1 | 1.8 | 8 | COc1ccc(C(=O)Nc2ccc(-c3ccccc3F)nc2)cc1C(=O)Nc1ccncc1 [Example 56, N^1-[6-(2-fluorophenyl)pyridin-3-yl]-4-methoxy-N^3-(pyridin-4-yl)isophthalamide]
2 | 0.64 | ≥ 50 | COc1ccc(C(=O)Nc2ccc(-c3ccccc3)cc2)cc1C(=O)NCc1cccnc1 [Example 16, N^1-(biphenyl-4-yl)-4-methoxy-N^3-(pyridin-3-ylmethyl)isophthalamide]
3 | 0.635 | 13.5 | COc1ccc(C(=O)Nc2ccc(-c3ccccc3)cc2)cc1C(=O)Nc1ccnc(C)c1 [Example 12, N^1-(biphenyl-4-yl)-4-methoxy-N^3-(2-methylpyridin-4-yl)isophthalamide]
4 | 2.82 | ≥ 50 | COc1cc(NC(=O)c2cc(C(=O)Nc3ccc(-c4ccccc4F)nc3)ccc2OC)ccn1 [Example 44, N^1-[6-(2-fluorophenyl)pyridin-3-yl]-4-methoxy-N^3-(2-methoxypyridin-4-yl)isophthalamide]
5 | 0.129 | ≥ 50 | COc1ccc(NC(=O)c2ccc(-c3ccccc3)cc2)cc1C(=O)Nc1ccncc1F [Example 8, N-{3-[(3-fluoropyridin-4-yl)carbamoyl]-4-methoxyphenyl}biphenyl-4-carboxamide]
6 | 3.35 | ≥ 50 | COc1ccc(NC(=O)c2ccc(-c3ccccc3)cc2)cc1C(=O)NCc1ccccc1 [Example 33, N-[3-(benzylcarbamoyl)-4-methoxyphenyl]biphenyl-4-carboxamide]
7 | 1.33 | ≥ 50 | COc1ccc(NC(=O)c2ccc(-c3ccccc3)cc2)cc1C(=O)NCc1ccccn1 [Example 32, N-{4-methoxy-3-[(pyridin-2-ylmethyl)carbamoyl]phenyl} biphenyl-4-carboxamide]
8 | 0.95 | 18.5 | O=C(Nc1ccc(-c2ccccc2F)nc1)c1ccc(OC(F)(F)F)c(C(=O)NCc2cccnc2)c1 [Example 18, N^1-[6-(2-fluorophenyl)pyridin-3-yl]-N^3-(pyridin-3-ylmethyl)-4-(trifluoromethoxy)isophthalamide]
9 | 0.6 | 10 | Cc1cc(NC(=O)c2cc(C(=O)Nc3ccc(-c4ccccc4)cc3)ccc2OC(F)(F)F)ccn1 [Example 10, N^1-(biphenyl-4-yl)-N^3-(2-methylpyridin-4-yl)-4-(trifluoromethoxy)isophthalamide]
10 | 1.8 | 14 | Nc1ccc(CNC(=O)c2cc(C(=O)Nc3ccc(-c4ccccc4F)nc3)ccc2OC(F)(F)F)cn1 [Example 51, N^3-[(6-aminopyridin-3-yl)methyl]-N^1-[6-(2-fluorophenyl)pyridin-3-yl]-4-(trifluoromethoxy) isophthalamide]
11 | 0.84 | ≥ 50 | COc1ccc(C(=O)Nc2ccc(-c3ccccc3F)nc2)cc1C(=O)Nc1cccnc1C [Example 25, N^1-[6-(2-fluorophenyl)pyridin-3-yl]-4-methoxy-N^3-(2-methylpyridin-3-yl)isophthalamide]
12 | 0.359 | ≥ 50 | O=C(Nc1ccc(-c2ccccc2)cc1)c1ccc(OC(F)(F)F)c(C(=O)NCc2ccccn2)c1 [Example 7, N^1-(biphenyl-4-yl)-N^3-(pyridin-2-ylmethyl)-4-(trifluoromethoxy)isophthalamide]
13 | 0.608 | 31 | CCOCCCNC(=O)c1cc(NC(=O)c2ccc(-c3ccccc3)cc2)ccc1OC [Example 5, N-{3-[(3-ethoxypropyl)carbamoyl]-4-methoxyphenyl}biphenyl-4-carboxamide]
14 | 3.65 | ≥ 50 | COc1ccc(NC(=O)c2ccc(-c3ccccc3)cc2)cc1C(=O)NCc1cccc(C)n1 [Example 34, N-(4-methoxy-3-{[(6-methylpyridin-2-yl)methyl]carbamoyl}phenyl) biphenyl-4-carboxamide]
15 | 0.42 | 31.5 | O=C(Nc1ccc(-c2cccnc2)cn1)c1ccc(OC(F)(F)F)c(C(=O)NCc2cccnc2)c1 [Example 30, N^1-(3,3′-bipyridin-6-yl)-N^3-(pyridin-3-ylmethyl)-4-(trifluoromethoxy)isophthalamide]
16 | 1.6 | ≥ 50 | COc1ccc(C(=O)Nc2ccc(-c3ccccc3F)nc2)cc1C(=O)NCc1cccnc1 [Example 41, N^1-[6-(2-fluorophenyl)pyridin-3-yl]-4-methoxy-N^3-(pyridin-3-ylmethyl)isophthalamide]
17 | 0.878 | ≥ 50 | Cc1cnccc1NC(=O)c1cc(C(=O)Nc2ccc(-c3ccccc3F)nc2)ccc1OC(F)(F)F [Example 19, N^1-[6-(2-fluorophenyl)pyridin-3-yl]-N^3-(3-methylpyridin-4-yl)-4-(trifluoromethoxy)isophthalamide]
18 | 10 | ≥ 50 | COc1ccc(C(=O)Nc2ccc(-c3ccccc3F)nc2)cc1C(=O)NCc1ccccn1 [Example 53, N^1-[6-(2-fluorophenyl)pyridin-3-yl]-4-methoxy-N^3-(pyridin-2-ylmethyl)isophthalamide]
19 | 4.35 | ≥ 50 | COCC(C)(C)CNC(=O)c1cc(NC(=O)c2ccc(-c3ccccc3)cc2)ccc1OC [Example 35, N-{4-methoxy-3-[(3-methoxy-2,2-dimethylpropyl)carbamoyl]phenyl}biphenyl-4-carboxamide]
20 | 2.23 | ≥ 50 | COc1ccc(C(=O)Nc2ccc(-c3ccccc3F)nc2)cc1C(=O)Nc1ccncc1C [Example 46, N^1-[6-(2-fluorophenyl)pyridin-3-yl]-4-methoxy-N^3-(3-methylpyridin-4-yl)isophthalamide]
21 | 1.8 | 25 | COc1ccc(NC(=O)c2ccc(-c3ccccc3)cc2)cc1C(=O)NCc1cccnc1 [Example 37, N-{4-methoxy-3-[(pyridin-3-ylmethyl)carbamoyl]phenyl} biphenyl-4-carboxamide]
22 | 1.11 | 21 | COc1cc(NC(=O)c2cc(C(=O)Nc3ccc(-c4ccccc4)cc3)ccc2OC)ccn1 [Example 38, N^1-(biphenyl-4-yl)-4-methoxy-N^3-(2-methoxypyridin-4-yl)isophthalamide]
23 | 4.8 | ≥ 50 | Nc1cccc(CNC(=O)c2cc(C(=O)Nc3ccc(-c4ccccc4F)nc3)ccc2OC(F)(F)F)n1 [Example 49, N^3-[(6-aminopyridin-2-yl)methyl]-N^1-[6-(2-fluorophenyl)pyridin-3-yl]-4-(trifluoromethoxy) isophthalamide]
24 | 1.75 | 12 | O=C(Nc1ccc(-c2ccccc2F)nc1)c1ccc(OC(F)(F)F)c(C(=O)NCc2ccccn2)c1 [Example 52, N^1-[6-(2-fluorophenyl)pyridin-3-yl]-N^3-(pyridin-2-ylmethyl)-4-(trifluoromethoxy) isophthalamide]
25 | 2.13 | ≥ 50 | O=C(Nc1ccc(-c2ccccc2F)nc1)c1ccc(OC(F)(F)F)c(C(=O)Nc2ccncc2F)c1 [Example 42, N^1-[6-(2-fluorophenyl)pyridin-3-yl]-N^3-(3-fluoropyridin-4-yl)-4-(trifluoromethoxy) isophthalamide]
26 | 3.2 | 16 | COc1ccc(C(=O)Nc2ccc(-c3ccccc3)cc2)cc1C(=O)NCc1ccc(NC(=O)OC(C)(C)C)nc1 [Example 54, tert-butyl [5-({[5-(biphenyl-4-ylcarbamoyl)-2-methoxybenzoyl]amino}methyl)pyridin-2-yl]carbamate]
27 | 0.375 | ≥ 50 | O=C(Nc1ccc(-c2ccccc2)cc1)c1ccc(OC(F)(F)F)c(C(=O)Nc2ccncc2F)c1 [Example 22, N^1-(biphenyl-4-yl)-N^3-(3-fluoropyridin-4-yl)-4-(trifluoromethoxy)isophthalamide]
28 | 0.225 | ≥ 50 | COc1cnccc1NC(=O)c1cc(C(=O)Nc2ccc(-c3ccccc3F)nc2)ccc1OC [Example 28, N^1-[6-(2-fluorophenyl)pyridin-3-yl]-4-methoxy-N^3-(3-methoxypyridin-4-yl)isophthalamide]
29 | 0.645 | ≥ 50 | COc1ccc(C(=O)Nc2ccc(-c3ccccc3F)nc2)cc1C(=O)Nc1ccncc1F [Example 27, N^1-[6-(2-fluorophenyl)pyridin-3-yl]-N^3-(3-fluoropyridin-4-yl)-4-methoxyisophthalamide]
30 | 2.25 | ≥ 50 | Cc1ncccc1NC(=O)c1cc(C(=O)Nc2ccc(-c3ccccc3)cc2)ccc1OC(F)(F)F [Example 40, N^1-(biphenyl-4-yl)-N^3-(2-methylpyridin-3-yl)-4-(trifluoromethoxy) isophthalamide]
